Data set [1] can be described thus: in vitro digestibility: hydrolysis with pancreatic lipase. Conditions: pig, pH 7.1 buffer, 37° C., same conditions as triolein control. It is filed as in vitro ADME, porcine. The procedure:
(§1) This example outlines the procedure for estimating the in vitro digestibility of the synthetic fat mimetics of this invention.
(§2) 1. Buffer: A pH 7.1 phosphate buffer is prepared by dissolving 6.8 g KH2 PO4 in 1 L of millipore filtered water (to yield 0.05 M phosphate). Fifty mg Ca(NO3)2 is added and 5.0 g cholic acid (Na salt, an ox bile isolate from Sigma) to give 0.3 mM Ca++ and 0.5 % cholic acid in 0.05 M phosphate. The pH is adjusted to approximately 7.1 with solid NaOH. Several drops of Baker "Resi-analyzed" toluene are added to prevent bacterial growth during storage at 3°-5° C. 2. Lipase: About 15 mg/mL commercial porcine pancreatic lipase from U.S. Biochemical Corporation is dissolved in buffer.
(§3) 3. Substrates and Standards: A 1.0 mL volumetric flask is charged with an amount of lipid substrate calculated to give a concentration of 200 nanomoles per microliter in Baker "Resianalyzed" toluene. (The proper concentration may be approximated by doubling the molecular weight of the lipid in question, dividing by 10, and diluting to the mark; this yields about 200 nanomoles per microliter.) This preparation affords the substrate to be used in the hydrolysis reactions.
(§4) Fatty acids and glyceride standards from Nu Chek or Sigma are prepared for elution on TLC plates (prewashed with 1:1 chloroform/methanol) by diluting the substrate solution with 10:1 toluene (1 part substrate plus 9 parts toluene) in septum vials.
(§5) In a 25 mL Erlenmeyer, emulsify 20 mL buffer and 40 microliters of substrate using an ultrasonic disrupter at a microtip maximum setting for approximately 10 seconds. […] Place in a 37° C. water bath and stir vigorously. After temperature equilibration, add 40 microliters of enzyme solution and start timing. Remove 5.0 mL aliquots at convenient time intervals for analysis. To establish a standard curve for triolein, aliquots are taken at 10, 20, 30 and 40 minutes.
(§6) Add the aliquot to a 15 mL glass centrifuge tube containing a drop of concentrated HCl. Add approximately 3 mL of a 2:1 mixture of CHCl3 :CH3 OH and shake vigorously. Centrifuge at approximately 5000 rpm for 5 minutes and transfer the bottom layer with a Pasteur pipet to a 5 mL septum vial. Repeat the extraction step once and combine the two bottom layers. Evaporate the solvent in nitrogen gas. After about half of the solvent is removed, add an equivalent volume absolute ethanol and continue evaporation in a nitrogen stream until dryness is achieved. Samples may be warmed with a heat gun to facilitate drying.
(§7) When the samples are dry, add exactly 200 microliters of toluene containing 10% DMSO, cap tightly, and spot TLC plate with 2.0 microliters per channel. […]

Data set [2] can be described thus: in vivo animal feeding study for caloric availability. The arrangement: species or system male Sprague-Dawley rats. The conditions noted are these: rats, diet of 50% fort and 21% test compound, 14 days; from weight gain and corn oil base line correlation. An excerpt:
This example illustrates how the novel fat mimetics of this invention are screened for caloric availability by a carefully controlled in vivo animal feeding study.
An experimental relationship between total calories ingested and animal body weight gain is established by monitoring the body weight gain associated with consumption of a nutritionally balanced diet containing varying concentrations of a reference substance such as corn oil which has a known caloric availability. Correlations between total calories ingested and body weight gain are excellent (r=0.99).
Caloric availability of a test material is evaluated by substituting a specific weight of the test material for the reference substance and observing the body weight gain. The gain in body weight is equated to a total number of calories using the correlation previously established for the reference data. The estimated number of calories ingested are divided by the weight of test material to give the apparent calories per gram for the test material. Generally speaking, in these bioavailability studies, the degree of perianal pelt soiling correlates with reduced bioavailability.
The test animals are six-week-old male Sprague-Dawley rats obtained from the Portage, Michigan facility of the Charles River Laboratories, Inc. After acclimation for 15 days, the test duration is 14 days. […]

Data set [3] concerns porcine pancreatic lipase. Kind of data set: in vitro digestibility: hydrolysis with pancreatic lipase. The class given is in vitro ADME. Conditions: pH 7.1 buffer, 37° C., in 10 minutes. As to the method: as §1, §2, §3, §4, §5, §6, §7
The conditions of data set [4]: rat, in vivo; cited from earlier work.

We go through five compounds from US5059442A, “Primary amide esters as low calorie fat mimetics” (Nabisco Brands, Inc., priority 1989, dated 1991).

The compound `CCCCCCCC/C=C\CCCCCCCC(=O)NCC(COC(=O)CCCCCCC/C=C\CCCCCCCC)OC(=O)CCCCCCC/C=C\CCCCCCCC` (stereo not drawn) [Example 2, 2,3-Bis(oleyoyloxy)propyl oleamide] displayed a metabolised in data set [1] of 50%. The “caloric availability (kcal/gram upon being metabolized)” value in data set [2] is “about 3.3 kcal/gram”.
For the compound `CCCCCCCC/C=C\CCCCCCCC(=O)NC(COC(=O)CCCCCCC/C=C\CCCCCCCC)COC(=O)CCCCCCC/C=C\CCCCCCCC` [Example 3, 1,3-Bis(oleoyloxy)propyl 2-oleamide], the metabolised in data set [1] was 50%.
On the same count and under the same terms, to `CCCCCCCC/C=C\CCCCCCCC(=O)NC(C)(COC(=O)CCCCCCC/C=C\CCCCCCCC)COC(=O)CCCCCCC/C=C\CCCCCCCC` [Example 4, 2-Methyl-1,3-bis(oleoyloxy)propyl 2-oleamide] belongs 10%.
As for `CCCCCCCC/C=C\CCCCCCCC(=O)OCC(COC(=O)CCCCCCC/C=C\CCCCCCCC)OC(=O)CCCCCCC/C=C\CCCCCCCC` [triolein], in data set [3], the “hydrolysis of triglyceride control” value is recorded as “substantially hydrolyzed”.
As to corn oil, in data set [4], the “caloric availability of reference substance” value is given as 9.0 kcal/gm.
